Laboratory results as given in patent US20100248267A1, “METHOD FOR MEASUREMENT OF CONCENTRATION OF ANTIGEN” (JAPAN SCIENCE AND TECHNOLOGY AGENCY, priority 2007, published 2010).

Assays:
[1] = tested on: antibody-enzyme fusion protein (VH-cpBLA-VL(219)); test: Activity assay of VH-cpBLA-VL(219) using Fluorocillin; assay type: biochemical; details: triplicate; for change in signal intensity (fluorescence): antigen final concentration 1 μg/ml, compared with PBS
Protocol: Activity of the above prepared antibody-enzyme fusion protein (VH-cpBLA-VL(219)) was assayed using Fluorocillin. The antigen peptide BGP-C7 at a final concentration of 0-2000 ng/ml and the antibody-enzyme fusion protein at a final concentration of 300 nM were mixed in 50 μl of PBS, and the mixture was dispensed into black microplate wells. After adding 50 μL of 2 μM Fluorocillin in PBS, the mixture was incubated at 28° C. for 60 minutes, and read for its fluorescence intensity (intensity at 535 nm with excitation light irradiation at 485 nm). Also, control experiments were performed without antibody-enzyme fusion protein, and the fluorescence intensity of these wells was used for background subtraction. […] For information, the measurement of the present experiment was performed in triplicate. Black circles in FIG. 14 indicate the average value of the measured values and the error bars indicate 1SD.
Further, similar experiments were performed using a substance other than BGP-C7 (BGP-C8, BGP-C10, ICP, TCP with each final concentration of 1 μg/ml) as antigens.

[2] = tested on: VH-split•cpBLA-VL/pET26/C43 strain; test: Growth assay using VH-split•cpBLA-VL expressing strain; assay type: cell-based, E. coli
Protocol: (§1) By applying the assay of the above-mentioned Example 6, VH-split•cpBLA-VL/pET26 was used instead of VH-cpBLA-VL/pET26, and the E. coli C43 (DE3) strain (Lucigen Corporation) suitable for overexpression of a highly toxic protein was used instead of the BL21 (DE3, pLysS) strain, to investigate the expression in the strains. To be specific, 0.5 μg of VH-split•cpBLA-VL/pET26 was used for transformation for the C43 (DE3) strain, and the transformed cells were cultured on a LB agar medium plate containing 50 μg/ml of kanamycin at 30° C. overnight, and the VH-split•cpBLA-VL expressing strain (VH-split•cpBLA-VL/pET26/C43 strain) was prepared. After overnight culture, the colonies generated on the above-mentioned LB agar medium plate were picked with a toothpick, inoculated and cultured in a 4 ml of the LB liquid medium containing 50 […] (LBK) at 27° C. overnight. 10 μl of this pre-cultured medium was inoculated in 1 ml of the LBK liquid medium containing 1 mM of IPTG, 0 or 10 μg/ml of ampicillin, 10 ng/ml of ICP or TCP. After the cells were cultured at 27° C. for 45 hours, the turbidity was measured using Mini photo 518R at 660 nm.

[3] = tested on: VH-cpBLA-VL/pET26/BL21 strain; test: Growth assay using VH-cpBLA-VL expressing strain; assay type: cell-based, E. coli; details: 100 μg/ml ampicillin LB medium
Protocol: Also, for the growth assay, ICP which is the target antigen of this antibody-enzyme fusion protein, and the thiacloprid (TCP) which is an analog of ICP with a lower cross-reactivity than ICP were used. In further detail, the assay was performed by the following procedures.
First, the strain expressing VH-cpBLA-VL (antibody-enzyme fusion protein) was prepared.
0.5 μg of VH-cpBLA-VL/pET26 was used for transformation of 100 μl of the BL21 (DE3, pLysS) strain (F-, ompT, hsdSB, (rB-, mB-), dcm, gal, λ(DE3), pLysS, Cmr), and the transformed cells were cultured on an LB agar medium plate containing 50 μg/ml of kanamycin and 37 μg/ml of chloramphenicol at 30° C. overnight, to prepare an antibody-enzyme fusion protein expressing strain (VH-cpBLA-VL/pET26/BL21 strain). After the overnight culture, colonies generated on the above-mentioned LB agar medium plate were picked with a toothpick, inoculated and cultured in a 4 ml of the LB liquid culture medium plate containing 50 μg/ml of kanamycin and 37 μg/ml of chloramphenicol at 27° C. overnight. 4 μl of this pre-cultured medium was inoculated and cultured in 4 ml of the LB liquid culture medium containing 50 μg/ml of kanamycin and 37 μg/ml of chloramphenicol, 1 mM of IPTG, 0 or 100 μg/ml ampicillin, 0 to 10 ng/ml of ICP or TCP at 27° C. for 33 hours, with measuring the time course of turbidity change using Mini photo 518R at 660 nm.

[4] = tested on: antibody-enzyme fusion protein (VH-cpBLA-VL); test: β-lactamase activity change of VH-cpBLA-VL with chromogenic substrate Nitrocefin; assay type: biochemical; details: 5 μl of 10 μg/ml antigen, 1 mM Nitrocefin, room temperature 18 hours
Protocol: First, 5 μl of the concentrated VH-cpBLA-VL protein solution prepared in Example 9, 5 μl of 10 μg/ml ICP or TCP, and 90 μl of PBS containing 1 mM of Nitrocefin were mixed, and left in a dark place at a room temperature for 18 hours. Then, the absorbance at 490 nm of the reaction solution was measured to investigate the change in the β-lactamase activity. Further, absorbance at 490 nm was also measured when PBS was used instead of ICP or TCP (the item “PBS” in FIG. 12), or when VH-cpBLA-VL protein solution was not added (the item “Nitrocefin” in FIG. 12). […] In other words, the ICP-dependent increase of β-lactamase activity was observed.

[5] = tested on: wild-type BL21 (DE3, pLysS) strain; test: Toxicity test of ICP in E. coli (growth curve, turbidity at 660 nm); assay type: cell-based; details: 100 ng/ml ICP, LB medium, 27° C. overnight, versus medium without ICP
Protocol: The BL21 (DE3, pLysS) strain was cultured at 30° C. overnight on an LB agar medium plate containing 37 μg/ml of chloramphenicol. The generated colonies were picked with a toothpick, inoculated and cultured in a 4 ml of the LB liquid culture medium containing 37 μg/ml of chloramphenicol at 27° C. overnight. 40 μl of this pre-cultured medium was inoculated and cultured in a 4 ml of the liquid culture medium containing 37 μg/ml of chloramphenicol and 100 ng/ml of ICP at 27° C. overnight, with measuring the time course of turbidity change using Mini photo 518R (TAITEC CORPORATION) at 660 nm.

[6] = tested on: antibody-enzyme fusion protein (VH-cpBLA-VL); test: β-lactamase activity change of VH-cpBLA-VL with fluorogenic substrate Fluorocillin; assay type: biochemical; details: 5 μl of 10 μg/ml antigen, 10 μM Fluorocillin, room temperature 30 minutes
Protocol: Next, a similar experiment was performed using a fluorogenic substrate Fluorocillin instead of the chromogenic substrate Nitrocefin. Specifically, 5 μl of concentrated VH-cpBLA-VL protein solution prepared in Example 9, and 5 of 10 μg/ml ICP or TCP were mixed, and incubated at 4° C. for 30 minutes. Then, 90 μl of PBS containing 10 μM Fluorocillin was added, and incubated at a room temperature for 30 minutes. The fluorescence at 535 nm with 435 nm excitation was measured using a microplate reader Genios Pro (Tecan Japan Co., Ltd.). […] In other words, the increase of the ICP-dependent β-lactamase activity was observed.

[7] = tested on: cpBLA/pET26/BL21 strain or cpBLA/pET26/C43 strain; test: Growth assay using cpBLA expressing strain; assay type: cell-based, E. coli
Protocol: as §1

[8] = ELISA for antigen binding ability of the antibody-enzyme fusion protein; details: ICP-BSA versus BSA coated plates
Protocol: The following ELISA assay was performed to confirm whether the antibody-enzyme fusion protein (VH-cpBLA-VL) actually has a binding activity to the antigen (ICP).
PBS solution containing 10 μg/ml of ICP-BSA or BSA was dispensed into Falcon 3912 microplates by 100 μl each, and left at 4° C. for 16 hours. After discarding the solution from the microplates, 200 μl of PBS including 25% of Immunoblock was added and left at a room temperature for 2 hours for blocking. Next, after washing the microplates with PBS-T, […] of the purified antibody-enzyme fusion protein (VH-cpBLA-VL) prepared in the above-mentioned Example 9 and 100 μl of PBS containing 5% Immunoblock were added, and left at a room temperature for 90 minutes. In order to detect the antibody-enzyme fusion protein (VH-cpBLA-VL) bound to the solid-phase by the above preparation, the microplates were washed with PBS-T, and added with HRP labeled Penta-His (QIAGEN K.K., Tokyo) diluted in 1/2000 in PBS containing 5% Immunoblock. […] After incubation for 5 minutes in a dark place, the reaction was stopped by adding 50 μl of 3.2 N of H2SO4, and the absorbance was measured with a platereader (450 nm).
Also, the above-mentioned ELISA was applied for VH-split•cpBLA-VL(VH-BLAc and BLAn-VL) or cpBLA instead of using VH-cpBLA-VL, and the absorbance was measured similarly. […]

[9] = less than 100 μg/ml ICP or TCP added

With “BGP-C7: antigen peptide (osteocalcin C-terminal peptide) recognised by antibody KTM219 (RRFYGPV)” the “change in fluorescence intensity (535 nm)” value ([1]; antigen 0-2000 ng/ml, 300 nM fusion protein, dose-dependent) was “significant increase of the fluorescence intensity”.

With `N#C/N=C1\SCCN1Cc1ccc(Cl)nc1` [TCP, thiacloprid] the “growth of expressing strain (turbidity at 660 nm)” value (from here on “growth … (turbidity at 660 nm)”) [2, 9] was “no significant growth”, the “change in signal intensity (fluorescence)” value (“change in signal intensity” for short) [1] was “only the same signal intensity as PBS” and the “time after initiation of measurement from which growth was observed” value ([3]; TCP, later than ICP of the same concentration) was “about 30 hours”. The “growth … (turbidity at 660 nm)” value ([3]; antigen at 10 ng/ml, similar to 1 ng/ml ICP) was “significant growth” and the “change in β-lactamase activity (absorbance at 490 nm)” value [4] was “slight significant signal increase”.

For `O=[N+]([O-])NC1=NCCN1Cc1ccc(Cl)nc1` [ICP, imidacloprid], the “growth … (turbidity at 660 nm)” value ([2]; 10 μg/ml ampicillin, 10 ng/ml antigen, 27° C., 45 hours) was “ICP dependent-growth”, the “growth … (turbidity at 660 nm)” value [2, 9] was “no significant growth” and the “change in signal intensity” value [1] was “only the same signal intensity as PBS”. The “toxicity or growth-promoting activity in E. coli” value [5] was “no toxicity or growth-promoting activity”, the “time after initiation of measurement from which growth was observed” value ([3]; ICP at 1 ng/ml) was “about 30 hours” and the “growth … (turbidity at 660 nm)” value ([3]; antigen at 1 ng/ml) was “dose-dependent growth”. The “growth … (turbidity at 660 nm)” value ([3]; antigen at 5 to 10 ng/ml) was “dose-dependent growth”, the “change in β-lactamase activity (absorbance at 490 nm)” value [4] was “significant signal increase” and the “change in β-lactamase activity (fluorescence at 535 nm)” value [6] was “significant signal increase”.

For “BGP-C10: BGP peptide detectable by open sandwich ELISA with KTM219 (EAYRRFYGPV)”, the “change in signal intensity” value [1] was “increase of the signal intensity”.

With “BGP-C8: BGP peptide detectable by open sandwich ELISA with KTM219 (YRRFYGPV)” the “change in signal intensity” value [1] was “increase of the signal intensity”.

B1: cpBLA: circularly permutated β-lactamase without antibody domains (SEQ ID NO: 13), control (protein, listed as Escherichia coli)
chain: NEAIPNDERDTTMPAAMATTLRKLLTGELLTLASRQQLIDWMEADKVAGPLLRSALPAGWFIADKSGAGERGSRGIIAALGPDGKPSRIVVIYTTGSQATMDERNRQIAEIGASLIKHWDKSHPETLVKVKDAEDQLGARVGYIELDLNSGKILESFRPEERFPMMSTFKVLLCGAVLSRIDAGQEQLGRRIHYSQNDLVEYSPVTEKHLTDGMTVRELCSAAITMSDNTAANLLLTTIGGPKELTAFLHNMGDHVTRLDRWEPELNEA
With B1 the “growth of expressing strain” value ([7]; ampicillin added) was “growth was not observed in any of the samples”, the “growth of expressing strain” value ([7]; ampicillin not added) was “growth was observed regardless of the presence or absence of the antigen” and the antigen-dependent growth ([7]; any of the cpBLA expressing strains) was “antigen-dependent growth was not observed”. For the same molecule, the “ELISA signal regardless of the presence or absence of ICP (antigen)” value [8] was “similarly low signal”.
